Results taken from patent publication US11708348B2, “Protease inhibitors for treatment of coronavirus infections” (The Scripps Research Institute, priority 2021, dated 2023).

System: SARS-CoV-2 strain USA-WA1/2020
Experiment: microbe, parasite or virus in culture
Assay type: cell-based
Details: Severe acute respiratory syndrome coronavirus 2, HeLa-ACE2, 24 h, HeLa-ACE2 cells, SARS-CoV-2 infection, 24 h; bound printed in cell; read-out: EC50, uM (Hela)

Row | SMILES | EC50
1 | C=C[C@@H]1C[C@]1(NC(=O)c1cc2cc(F)ccc2[nH]1)C(=O)N[C@@H](C[C@@H]1CCNC1=O)C(=O)COC(F)(F)F [Compound 259, 5-fluoro-N-((1R,2S)-1-(((S)-3-oxo-1-((S)-2-oxopyrrolidin-3-yl)-4-(trifluoromethoxy)butan-2-yl)carbamoyl)-2-vinylcyclopropyl)-1H-indole-2-carboxamide] | > 1 µM

Same assay, conditions: Severe acute respiratory syndrome coronavirus 2, HeLa-ACE2, 24 h, HeLa-ACE2 cells, SARS-CoV-2 infection, 24 h; class symbols; read-out: EC50, uM (Hela)

Row | SMILES | EC50
2 | CC(C)(C)C[C@H](NC(=O)[C@H]1CCCO1)C(=O)N[C@@H](C[C@@H]1CCNC1=O)C(=O)COC(F)(F)F [Compound 301, (R)-N-((S)-4,4-dimethyl-1-oxo-1-(((S)-3-oxo-1-((S)-2-oxopyrrolidin-3-yl)-4-(trifluoromethoxy)butan-2-yl)amino)pentan-2-yl)tetrahydrofuran-2-carboxamide] | < 0.05 µM
3 | CC(C)C[C@@H](O)C(=O)N1C[C@@H]2CCC[C@@H]2[C@H]1C(=O)N[C@@H](C[C@@H]1CCNC1=O)C(=O)COC(F)(F)F [Compound 363, (1S,3aR,6aS)-2-((R)-2-hydroxy-4-methylpentanoyl)-N-((S)-3-oxo-1-((S)-2-oxopyrrolidin-3-yl)-4-(trifluoromethoxy)butan-2-yl)octahydrocyclo-penta[c]pyrrole-1-carboxamide] | < 0.05 µM
4 | CC(C)C[C@H](NC(=O)OCc1ccccc1)C(=O)N[C@@H](C[C@@H]1CCNC1=O)C(=O)COc1c(F)c(F)cc(F)c1F [Compound 15, benzyl ((S)-4-methyl-1-oxo-1-(((S)-3-oxo-1-((S)-2-oxopyrrolidin-3-yl)-4-(2,3,5,6-tetrafluorophenoxy)butan-2-yl)amino)pentan-2-yl)carbamate] | 0.2 to 0.5 µM
5 | O=C(Nc1ccccc1F)C(=O)NC(CC1CCOCC1)C(=O)N[C@@H](C[C@@H]1CCNC1=O)C(=O)COC(F)(F)F (stereo partly drawn) [Compound 271, N1-(2-fluorophenyl)-N2-(1-oxo-1-(((S)-3-oxo-1-((S)-2-oxopyrrolidin-3-yl)-4-(trifluoromethoxy)butan-2-yl)amino)-3-(tetrahydro-2H-pyran-4-yl)propan-2-yl)oxalamide] | < 0.05 µM
6 | CC[C@@H](O)C(=O)NC(CC1(C)CC1)C(=O)N[C@@H](C[C@@H]1CCNC1=O)C(=O)COC(F)(F)F (stereo partly drawn) [Compound 372, (2R)-2-hydroxy-N-(3-(1-methylcyclopropyl)-1-oxo-1-(((S)-3-oxo-l-((S)-2-oxopyrrolidin-3-yl)-4-(trifluoromethoxy)butan-2-yl)amino)propan-2-yl)butanamide] | 0.2 to 0.5 µM
7 | O=C1NCC[C@H]1C[C@H](NC(=O)[C@@H]1CC2(CC2)CN1C(=O)[C@H]1CCCO1)C(=O)COC(F)(F)F [Compound 305, (S)-N-((S)-3-oxo-1-((S)-2-oxopyrrolidin-3-yl)-4-(trifluoromethoxy)butan-2-yl)-5-((R)-tetrahydrofuran-2-carbonyl)-5-azaspiro[2.4]heptane-6-carboxamide] | 0.2 to 0.5 µM
8 | CC[C@@H](C)[C@@H](O)C(=O)N1CC2(CC2)C[C@H]1C(=O)N[C@@H](C[C@@H]1CCNC1=O)C(=O)COC(F)(F)F [Compound 380, (S)-5-((2R,3R)-2-hydroxy-3-methylpentanoyl)-N-((S)-3-oxo-1-((S)-2-oxopyrrolidin-3-yl)-4-(trifluoromethoxy)butan-2-yl)-5-azaspiro[2.4]-heptane-6-carboxamide] | 0.05 to 0.2 µM
9 | CC(C)C[C@H](NC(=O)C(=O)Nc1c(C(C)C)cccc1C(C)C)C(=O)N[C@@H](C[C@@H]1CCNC1=O)C(=O)COC(F)(F)F [Compound 159, Nl-(2,6-diisopropylphenyl)-N2-((S)-4-methyl-1-oxo-1-(((S)-3-oxo-1-((S)-2-oxopyrrolidin-3-yl)-4-(trifluoromethoxy)butan-2-yl)amino)pentan-2-yl)oxalamide] | < 0.05 µM
10 | CC(C)C[C@H](NC(=O)C(=O)NC12CCC(F)(CC1)CC2)C(=O)N[C@@H](C[C@@H]1CCNC1=O)C(=O)COC(F)(F)F [Compound 251, N1-(4-fluorobicyclo-[2.2.2]octan-1-yl)-N2-((S)-4-methyl-1-oxo-1-(((S)-3-oxo-1-((S)-2-oxopyrrolidin-3-yl)-4-(trifluoromethoxy)butan-2-yl)amino)pentan-2-yl)oxalamide] | < 0.05 µM
11 | Cc1ccccc1NC(=O)C(=O)N[C@@H](CC(C)C)C(=O)N[C@@H](C[C@@H]1CCNC1=O)C(=O)COc1c(F)c(F)cc(F)c1F [Compound 37, N1-((S)-4-methyl-1-oxo-1-(((S)-3-oxo-1-((S)-2-oxopyrrolidin-3-yl)-4-(2,3,5,6-tetrafluoro-phenoxy)butan-2-yl)amino)pentan-2-yl)-N2-(o-tolyl)oxalamide] | < 0.05 µM
12 | CC[C@@H](O)C(=O)N1CC2(CC2)C[C@H]1C(=O)N[C@@H](C[C@@H]1CCNC1=O)C(=O)COC(F)(F)F [Compound 371, (S)-5-((R)-2-hydroxybutanoyl)-N-((S)-3-oxo-1-((S)-2-oxopyrrolidin-3-yl)-4-(trifluoromethoxy)butan-2-yl)-5-azaspiro[2.4]heptane-6-carboxamide] | 0.05 to 0.2 µM
13 | CC(C)(F)C[C@H](O)C(=O)N1CC2(CC2)C[C@H]1C(=O)N[C@@H](C[C@@H]1CCNC1=O)C(=O)COC(F)(F)F [Compound 350, (S)-5-((S)-4-fluoro-2-hydroxy-4-methylpentanoyl)-N-((S)-3-oxo-1-((S)-2-oxopyrrolidin-3-yl)-4-(trifluoromethoxy)butan-2-yl)-5-azaspiro[2.4]-heptane-6-carboxamide] | 0.05 to 0.2 µM
14 | C[C@](O)(C(=O)N1CC2(CC2)C[C@H]1C(=O)N[C@@H](C[C@@H]1CCNC1=O)C(=O)COC(F)(F)F)c1ccccc1 [Compound 365, (S)-5-((R)-2-hydroxy-2-phenylpropanoyl)-N-((S)-3-oxo-1-((S)-2-oxopyrrolidin-3-yl)-4-(trifluoromethoxy)butan-2-yl)-5-azaspiro[2.4]-heptane-6-carboxamide] | < 0.05 µM
15 | CC(C)C[C@H](NC(=O)c1c[nH]c2ncccc12)C(=O)N[C@@H](C[C@@H]1CCNC1=O)C(=O)COC(F)(F)F [Compound 249, N-((S)-4-methyl-1-oxo-1-(((S)-3-oxo-1-((S)-2-oxopyrrolidin-3-yl)-4-(trifluoromethoxy)butan-2-yl)amino)pentan-2-yl)-1H-pyrrolo[2,3-b]pyridine-3-carboxamide] | 0.2 to 0.5 µM
16 | O=C1NCC[C@H]1C[C@H](NC(=O)[C@@H]1CC2(CC2)CN1C(=O)C(O)CCC(F)(F)F)C(=O)COC(F)(F)F (stereo partly drawn) [Compound 395, (6S)-N-((S)-3-oxo-1-((S)-2-oxopyrrolidin-3-yl)-4-(trifluoromethoxy)butan-2-yl)-5-(5,5,5-trifluoro-2-hydroxypentanoyl)-5-azaspiro[2.4]heptane-6-carboxamide] | 0.05 to 0.2 µM

Same assay, conditions: Severe acute respiratory syndrome coronavirus 2, HeLa-ACE2, 24 h, HeLa-ACE2 cells, SARS-CoV-2 infection, 24 h; read-out: EC50, uM (Hela)

Row | SMILES | EC50
17 | [2H]C([2H])(CCCC)C(=O)N1CC2(CC2)C[C@H]1C(=O)N[C@@H](C[C@@H]1CCNC1=O)C(=O)COC(F)(F)F [Compound 740, (S)-5-(hexanoyl-2,2-d2)-N-((S)-3-oxo-1-((S)-2-oxopyrrolidin-3-yl)-4-(trifluoromethoxy)butan-2-yl)-5-azaspiro[2.4]heptane-6-carboxamide] | < 0.05 µM
18 | CC(C)(F)CCC(=O)N1CC2(CC2)C[C@H]1C(=O)N[C@@H](C[C@@H]1CCNC1=O)C(=O)COC(F)(F)F [Compound 624, (S)-5-(4-fluoro-4-methylpentanoyl)-N-((S)-3-oxo-1-((S)-2-oxopyrrolidin-3-yl)-4-(trifluoromethoxy)butan-2-yl)-5-azaspiro[2.4]heptane-6-carboxamide] | 0.05 to 0.2 µM
19 | CC(F)(F)CCC(=O)N1CC2(CC2)C[C@@H]1C(=O)N[C@H](C[C@@H]1CCNC1=O)C(=O)COC(F)(F)F [Compound 750, (R)-5-(4,4-difluoropentanoyl)-N-((R)-3-oxo-1-((S)-2-oxopyrrolidin-3-yl)-4-(trifluoromethoxy)butan-2-yl)-5-azaspiro[2.4]heptane-6-carboxamide] | 0.05 to 0.2 µM
20 | O=C(NCC(F)(F)F)C(=O)N1[C@@H]2CC[C@@H](C2)[C@H]1C(=O)N[C@@H](C[C@@H]1CCNC1=O)C(=O)COC(F)(F)F [Compound 542, (1R,3S,4S)-N-((S)-3-oxo-1-((S)-2-oxopyrrolidin-3-yl)-4-(trifluoromethoxy)butan-2-yl)-2-(2-oxo-2-((2,2,2-trifluoroethyl)-amino)acetyl)-2-azabicyclo[2.2.1]-heptane-3-carboxamide] | 0.05 to 0.2 µM
21 | CC(C)(C)C[C@H](NC(=O)C(=O)Nc1cccc(C(F)(F)F)n1)C(=O)N[C@@H](C[C@@H]1CCCNC1=O)C(=O)CO [Compound 742, N1-((S)-1-(((S)-4-hydroxy-3-oxo-1-((S)-2-oxopiperidin-3-yl)butan-2-yl)amino)-4,4-dimethyl-1-oxopentan-2-yl)-N2-(6-(trifluoromethyl)pyridin-2-yl)oxalamide] | 0.2 to 0.5 µM
22 | O=C1NCC[C@H]1C[C@H](NC(=O)[C@@H]1CC2(CC2)CN1C(=O)C1(O)CCC(F)(F)CC1)C(=O)COC(F)(F)F [Compound 421, (S)-5-(4,4-difluoro-1-hydroxycyclohexane-1-carbonyl)-N—((S)-3-oxo-1-((S)-2-oxopyrrolidin-3-yl)-4-(trifluoromethoxy)butan-2-yl)-5-azaspiro[2.4]heptane-6-carboxamide] | < 0.05 µM
23 | CC(C)C[C@@H](N)C(=O)N1CC2(CC2)C[C@H]1C(=O)N[C@@H](C[C@@H]1CCNC1=O)C(=O)COC(F)(F)F [Compound 644, (S)-5-(D-leucyl)-N-((S)-3-oxo-1-((S)-2-oxopyrrolidin-3-yl)-4-(trifluoromethoxy)butan-2-yl)-5-azaspiro[2.4]heptane-6-carboxamide] | 0.2 to 0.5 µM
24 | CCC(=O)O[C@H](CC(C)C)C(=O)N1CC2(CC2)C[C@H]1C(=O)N[C@@H](C[C@@H]1CCNC1=O)C(=O)COC(F)(F)F [Compound 626, (R)-4-methyl-1-oxo-1-((S)-6-(((S)-3-oxo-l-((S)-2-oxopyrrolidin-3-yl)-4-(trifluoromethoxy)butan-2-yl)carbamoyl)-5-azaspiro[2.4]heptan-5-yl)pentan-2-yl propionate] | < 0.05 µM
